Test results published in patent publication US5214034A, “Catechol derivatives, and preventive and remedial preparations for regressive disorders in the central nervous system containing the same” (priority 1986, dated 1993).
Read-outs that look alike come from different tables or passages of the source.

Legend:
[1] = Acute toxicity (LD50); details: mouse, in vivo
Description: The catechol derivative having normal type saturated lower alkyl groups on the ring was administered by intravenous injection (i.v.), intraperitoneal injection (i.p.) or oral route (p.o.) to male ddy mice of 4-week old. The LD50 values (mg/kg) were measured by an ordinary method.

[2] = test system: production and secretion of NGF in brain astroglial cells; test: Promoting activity for the production and secretion of NGF in brain astroglial cells of mouse (ELISA)
Description: The experiment was performed by inducing the astroglial cells from mouse forebrain to culture system according to the procedures of S. Furukawa et al. which is described in Biochem. Biophys. Res. Commun., 136, 57-63 (1986).
That is, forebrains of 8-day old mice were dissected out and cut into small pieces. […] Cells and cell clamps were recovered by centrifugation at 200 xg for 5 minutes. They were cultured in Dulbecco modified Eagle's medium (a product of Gibco Co. hereinafter abbreviated as DMEM) containing 10% of fetal calf serum, […] of penicillin, and 50 μg/ml of streptomycin, for 10 to 14 days with medium changes every 3 days. After completing confluency, the cells were dissociated by trypsin treatment and recultured in new culture flasks. This procedure was repeated further twice and more. […] The cells will hereinafter be referred to as astroglial cells.
Astroglial cells were innoculated in 24-well plates having a well surface area of 2.1 cm^2 (a product of Falcon Co.) at a cell density of about 3×10^4 cells/well and cultured for 3 days in DMEM . medium supplemented with 10% of fetal calf serum. After completing confluency about 10^7 cells/well), the medium was changed to DMEM medium (0.5 ml/well) supplemented with 0.5% of bovine serum albumin ((fraction V) and cultured for 3 days. The culture was further continued with medium changes every 3 days. After cells were practically synchronized in the quiscent stage, the medium was changed to 0.5 ml of the medium supplemented with 0.5% of bovine serum albumin and containing a prescribed concentration of test sample as illustrated in Tables. […] Data are expressed as fold increase in NGF content over that in the absence of the test sample. […] Data are presented as means ±SE of four determinations.

[3] = test system: production and secretion of NGF on L-M cells; test: Promoting action for the production and secretion of NGF on L-M cells of mouse (ELISA); type: cell-based; details: Mus musculus
Excerpt: Catecholamines have also been found in a relatively high concentration to accelerate these functions without being mediated by adrenergic receptors [Y. Furukawa et al., J. Biol. Chem., 261, 6039-6047 (1986)].
The compound having a high activity in Table 1, that is, the catechol derivative having a n-alkyl group in the 3 or 4 position on the ring has been observed an acute cell toxicity in higher concentrations. The toxicity was considered the result of two hydroxyl groups in the catechol structure. Then the hydroxyl groups were esterified or etherified and the resulting derivative was examined the effect on the activity for the production and secretion of NGF.
The experiment was performed according to the procedures of Y. Furukawa et al. which is described in J. Bis Chem., 261, 6039-6047 (1986).
The medium was cultured for 3 days at a temperature of 37° C. After completing the confluency (about 10^6 cells/well), the medium was changed to Medium 199 (0.5 ml/well) containing 0.5% bovine serum albumin (Fraction V, a product of Armour Co.). The sample of the derivative is contained in the medium at a prescribed concentration as illustrated in the Tables.

[4] = test system: NGF; test: NGF production in the central nervous system of normal rats by intraperitoneal injection (NGF content of brain tissue, ELISA); type: in vivo, rat (Wistar male); details: Table 7, i.p., three times every other day; for NGF content after 48 hr.: 48 hours after final administration; for NGF content after 7 days: 7 days after final administration
Description: The derivative (A), e.g. R=Two H, R1 =H and R2 =n-propyl (hereinafter referred to as 4-n-propylcatechol), was administered to normal rats by intraperitoneal injection, and the effect was examined.
4-n-Propylcatechol was administered by intraperitoneal injection 4 times every other day in a dosage of 5 mg/kg. The rats were killed two days after the final administration. The NGF content of each parts in brain was measured. The content was compared with those of control group which was administered saline alone.
A variety of the derivative was administered three times every other day. The content of NGF in the forebrain after 48 hours and 7 days from the final administration was measured and illustrated in Table 7.
Wistar male rats (9-10-week old, 200-250 g of weight) were intraperitoneally injected with the test derivative in a volume of 0.5 ml as a saline solution, emulsion or suspension. Dose and administration times were the same as above. The rats were killed by a hard spinal blow two days after the final administration. Each parts of brain were dissected and subjected to the following treatment under ice cooling.
Each parts of brain were weighed and homogenized for 30 strokes by a Dounce type homogenizer in a homogenization buffer (0.1 M Tris-HCl, containing 2% bovine serum albumin fraction V, 2% gelatin, 1.0 M NaCl, 0.02% NaN3, 2 mM EDTA and 2.6 kiu/ml of aprotinin, pH 7.6) at a concentration of 10% (W/V) (only septum 5% (W/V)). Each homogenate was centrifuged at 100,000 xg for 10 minutes, and 50 μl of supernatant was added with the same amount of a dilution buffer (0.1 M Tris-HCl containing 2% bovine serum albumin fraction V, 0.05% NaN3 and 20 mM CaCl2, pH 7.6). Determination was conducted in accordance with a method of S. Furukawa et al. by using a high sensitivity ELISA system on 8-NGF which was described in J. Neurochem., 40, 734-744 (1983). Lower limit of determination is 0.25 pg/ml. Data are indicated as a mean value ±SE on the NGF content of tissue (pg/mg wet tissue) of five rats.

[5] = ip, intraperitoneal injection, read-out: LD50 i.p.
[6] = intravenous injection, read-out: LD50 i.v.
[7] = oral route, read-out: LD50 p.o.
[8] = 24 h, read-out: Ratio of NGF increase, Table 3, 0.10 mM, 24 hours, mean ± SE of four determinations
[9] = 24 h, read-out: Ratio of NGF increase, Table 3, 0.25 mM, 24 hours, mean ± SE of four determinations
[10] = 24 h, read-out: Ratio of NGF increase
[11] = 24 h, read-out: Ratio of NGF increase, 24-hr culture
[12] = 48 h, read-out: Ratio of NGF increase, 48-hr culture

Row | SMILES | LD50 [1, 5] [mg/kg] | LD50 [1, 6] [mg/kg] | LD50 [1, 7] [mg/kg] | fold induction at 100 µM ([2]; 24 h, read-out: Ratio of NGF increase, 24-hr culture, Table 4, 0.10 mM, 24-hr culture) | fold induction at 250 µM ([2]; 24 h, read-out: Ratio of NGF increase, 24-hr culture, Table 4, 0.25 mM, 24-hr culture) | fold induction at 100 µM [2, 8] | fold induction at 250 µM [2, 9] | fold induction at 100 µM ([2]; 48 h, read-out: Ratio of NGF increase, 48-hr culture, Table 4, 0.10 mM, 48-hr culture) | fold induction at 250 µM ([2]; 48 h, read-out: Ratio of NGF increase, 48-hr culture, Table 4, 0.25 mM, 48-hr culture) | fold induction at 30 µM [3, 10] | fold induction at 100 µM [3, 10] | fold induction at 30 µM [3, 11] | fold induction at 150 µM [3, 11] | fold induction at 30 µM [3, 12] | fold induction at 150 µM [3, 12] | NGF content after 48 hr. [4] | NGF content after 7 days [4] | LD50 ([1]; ip, read-out: LD50 i.p.) [mg/kg] | LD50 ([1]; iv, read-out: LD50 i.v.) [mg/kg] | LD50 ([1]; po, read-out: LD50 p.o.) [mg/kg]
1 | Cc1ccc(O)c(O)c1 [R = Two H, R1 = H, R2 = Methyl, 4-Methylcatechol] | > 200 | > 50 | > 500 | 77.3 ± 9.21 | 6.59 ± 1.34 | 80.8 ± 4.21 | 4.89 ± 1.37 | 106 ± 7.61 | 2.47 ± 1.22 | 8.91 ± 0.43 | 2.36 ± 1.9 | 8.77 ± 0.66 | 2.87 ± 0.54 | 9.21 ± 0.69 | 2.49 ± 0.88 | 2.26 ± 0.24 pg/mg wet tissue of frontal co | 1.64 ± 0.46 pg/mg wet tissue of frontal co | – | – | –
2 | CCCCc1ccc(O)c(O)c1 [R = Two H, R1 = H, R2 = n-Butyl, 4-n-butylcatechol] | > 500 | > 150 | > 1500 | – | – | 59.7 ± 3 | 88.3 ± 2.47 | – | – | 8.21 ± 1.1 | 14 ± 1.33 | – | – | – | – | 1.88 ± 0.46 pg/mg wet tissue of frontal co | 2.25 ± 0.33 pg/mg wet tissue of frontal co | – | – | –
3 | CCCc1ccc(OC(C)=O)c(OC(C)=O)c1 [R = Two acetyl, R1 = H, R2 = n-Propyl, 1,2-diacetoxy-4-propylbenzene] | > 750 | > 250 | > 2500 | – | – | – | – | – | – | – | – | – | – | – | – | 1.71 ± 0.28 pg/mg wet tissue of frontal co | 2.16 ± 0.46 pg/mg wet tissue of frontal co | – | – | –
4 | CCCc1cccc(O)c1O [R = Two H, R1 = n-Propyl, R2 = H] | – | – | – | – | – | 72.9 ± 7.09 | 97 ± 9.24 | – | – | 9.81 ± 0.92 | 16.3 ± 2.04 | – | – | – | – | 2.03 ± 0.37 pg/mg wet tissue of frontal co | 2.00 ± 0.43 pg/mg wet tissue of frontal co | > 500 | > 150 | > 1500
5 | CCCc1ccc2oc(=O)c(=O)oc2c1 [R = --CO.CO--, R1 = H, R2 = n-Propyl, 6-n-propyl-1,4-benzodioxine-2,3-dione] | > 1250 | > 250 | > 3000 | – | – | – | – | – | – | – | – | – | – | – | – | 1.54 ± 0.20 pg/mg wet tissue of frontal co | 2.02 ± 0.47 pg/mg wet tissue of frontal co | – | – | –
6 | CCCc1ccc2c(c1)OC(C)(C)O2 [R = --C(CH3)2 --, R1 = H, R2 = n-Propyl, 5-n-Propyl-2,2-dimethyl-1,3-benzodioxol] | > 1500 | > 500 | > 3500 | – | – | – | – | – | – | – | – | – | – | – | – | 1.15 ± 0.18 pg/mg wet tissue of frontal co | 1.51 ± 0.49 pg/mg wet tissue of frontal co | – | – | –
7 | CCc1ccc(O)c(O)c1 [R = Two H, R1 = H, R2 = Ethyl, 4-ethylcatechol] | > 300 | > 75 | > 1000 | – | – | 55.2 ± 3.24 | 64.7 ± 4.26 | – | – | 10 ± 0.97 | 12.1 ± 1.09 | – | – | – | – | 1.96 ± 0.42 pg/mg wet tissue of frontal co | 1.73 ± 0.39 pg/mg wet tissue of frontal co | – | – | –
